Paper PMC6155852, “Oral Administration of the Japanese Traditional Medicine Keishibukuryogan-ka-yokuinin Decreases Reactive Oxygen Metabolites in Rat Plasma: Identification of Chemical Constituents Contributing to Antioxidant Activity” (Molecules : A Journal of Synthetic Chemistry and Natural …, 2017)
Values joined by “and” are separate entries in the source; they are usually repeats but may differ in a detail not shown here. Equal values may be shown once. Read-outs that look alike come from different tables or passages of the source.

Experiments:
[1] = Lipid hydroperoxide (LPO) generation assay (linoleic acid, Fenton reaction); type: biochemical
Protocol: Antioxidant assays using linoleic acid with a purity of 98.0% (Wako Pure Chemical Ind.) were performed using a described protocol with modifications. Briefly, 20 μL of 1% linoleic acid in methanol, 20 μL of 20 mmol/L ferrous chloride in water, 20 μL of test sample in DMSO, and 150 μL of a mixed solution (1:1) of methanol and 20 mmol/L phosphate buffer (pH 7.0) were added to 96-well polypropylene plates. After incubation at room temperature in the dark for 1 h, 10 μL of the reaction products were transferred to 200 μL of a methanol solution containing 39 mmol/L ammonium thiocyanate, 0.2 mmol/L ferrous chloride, and 0.01 mol/L hydrochloride. After incubation for 15 min, absorbance at 500 nm was measured using a microplate reader (Multiskan GO, Thermo Fisher Scientific Inc., Waltham, MA, USA). The concentration of lipid hydroperoxide (LPO) products was calculated conveniently using standard curves of serially-diluted linolein hydroperoxides (Cayman Chemical). The percentage of control was calculated using the following formula; (A − B)/(C − B) × 100, with A = test sample, B = linoleic acid alone, and C = vehicle control. Ascorbic acid was used as a reference agent.

[2] = Plasma pharmacokinetics of KBGY constituents in rats after single oral administration of KBGY; type: in vivo, rat
Protocol: KBGY prepared in water was administered orally to 16 h fasted rats at a dose of 2 g/10 mL/kg (n = 3). […] Plasma was obtained by centrifugation at 1700× g for 15 min at 4 °C and stored at −80 °C until analysis.
For quantification of the dicarboxylic acid, 50 µL of standard solution, 100 µL of acetic acid (2%, v/v), and 650 µL of ethyl acetate were added to 200 µL of plasma samples, followed by mixing and centrifugation (7000× g, 5 min). The supernatants were collected and dried with a centrifugal evaporator and concentration system (CC-105; TOMY SEIKO Co., Tokyo, Japan). The residue was dissolved with 100 µL acetonitrile and 50 µL BF3/butanol solution; the dissolved solution was incubated for 1 h at 60 °C. The reaction was terminated by the addition of 50 µL of water and hexane, 150 µL of a saturated solution of sodium chloride, and 400 µL of hexane. The solution was vortexed for 2 min, and the supernatant was obtained by centrifugation (7000× g, 5 min). Liquid–liquid extraction was repeated twice. The corrected supernatant was dried with the centrifugal evaporator and concentration system. The dried residue was dissolved in 100 µL of acetonitrile containing 1 µg/mL of o-terphenyl (Tokyo Chemical Ind. Co.) as an internal standard (IS). Five microliters of the solution was then injected into the GC/MS system.
For quantification of volatile organic compounds (cinnamaldehyde, methyl cinnamate, 2-methoxycinnamaldehyde, mandelonitrile, salicylaldehyde, eugenol, cinnamyl alcohol, and 3-phenylpropyl acetate), 25 µL of standard solution, 25 µL of 2 µg/mL of 1,4-dibromobenzene (Tokyo Chemical Ind. Co.) as IS, and 500 µL of acetonitrile were added to 200 µL of plasma samples, followed by mixing and centrifugation (7000× g, 5 min). Five microliters of the supernatant was then injected into the GC/MS system.
For quantification of other compounds, 25 µL of standard solution, 25 µL of 2 ng/mL of atropine sulfate monohydrate (Wako Pure Chemical Ind.) or niflumic acid (Sigma-Aldrich) as IS, and 750 µL of methanol were added to 200 µL of plasma samples, followed by mixing and centrifugation (7000× g, 5 min). The supernatant was obtained and dried with the centrifugal evaporator and concentration system after 150 µL of propylene glycol (1%, v/v) was added to the supernatant. The dried residue was then dissolved in 60 μL of the HPLC mobile phase for each analytical method, and a 10 or 20 μL portion was injected into the LC/MS/MS system.
Plasma pharmacokinetic data were analyzed by noncompartmental modeling using Phoenix WinNonlin (version 6.3, Certara L.P., St. Louis, MO, USA) to determine various pharmacokinetic constants, including the maximum concentration (Cmax), time to maximum concentration (tmax), apparent elimination half-life (t1/2), and area under the plasma concentration-time curve from zero to last observation time (AUC0–last). The t1/2 was divided by loge^2/ke, where ke was the terminal elimination (at least three data points on the descending linear limb) rate constant.

[3] = ROS scavenging assay (hydrogen peroxide-dependent oxidation); type: biochemical; settings: for IC50: concentration-dependency, Figure 4
Protocol: Hydrogen peroxide-dependent oxidation tests were performed using Oxiselect™ In Vitro ROS/RNS Assay kits (Cellbiolab Inc., San Diego, CA, USA) according to the manufacturer’s protocol. Briefly, a test sample was mixed with hydrogen peroxide (final concentration: 2.5 μmol/L) and incubated for 5 min. A fluorescent reaction was started by the addition of a fluorescent probe (dichrolodihydrofluorescin-DiOxyQ) at room temperature. After incubation for 15 min, relative fluorescent units (RFUs) were measured at […] using a fluorescent plate reader (Infinite M200; Tecan Trading AG, Männedorf, Switzerland). The percentage of control was calculated using the following formula; (A − B)/(C − B) × 100, with A = test sample, B = fluorescent probe alone, and C = vehicle control. (+)-Ascorbic acid was used as a reference agent.

[4] = 10 μmol/L, more than 100% = no activity
[5] = 1 μmol/L, C.I. = complete inhibition
[6] = 10 μmol/L, C.I. = complete inhibition, more than 100% = no activity
[7] = rat plasma, single oral KBGY 2 g/kg
[8] = in vivo, rat plasma, single oral KBGY 2 g/kg, read-out: tmax

Tmax ([2]; rat, in vivo, po, 2 g/kg)	AUC(0-t) ([2]; rat, in vivo, po, 2 g/kg)	Cmax ([2]; rat, in vivo, po, 2 g/kg)	half-life ([2]; rat, in vivo, po, 2 g/kg)	Compound	Antioxidant Activity (% of Control) LPO Generation [1, 4]	anti-ROS activity ([3]; 10 μmol/L)	Antioxidant Activity (% of Control) ROS Scavenge [3, 6]	other results
0.25 h	–	–	–	COc1cc([C@H]2OC[C@H]3[C@@H]2CO[C@@H]3c2cc(OC)c(O)c(OC)c2)cc(OC)c1O (racemic) [(±)-Syringaresinol]	68.4 ± 3.3 % of Control	strong anti-ROS activity	C.I.	Antioxidant Activity (% of Control) LPO Generation ([1]; 1 μmol/L): 107.4 ± 4.2 % of Control; Antioxidant Activity (% of Control) LPO Generation ([1]; 10 μmol/L, more than 100% = no activity, listed as (±)-syringaresinol): less than 80 % of Control; AUC0–last ([2]; rat, in vivo, po, 2 g/kg): 0.0771 ng·h/mL; Antioxidant Activity (% of Control) ROS Scavenge [3, 5]: 39.4 ± 2.4 % of Control
1 h	58.6 ng·h/mL	12.7 ng/mL and 69 nM	6.59 h	COc1cc(C(=O)O)cc(O)c1O [3-O-Methylgallic acid]	–	strong anti-ROS activity	C.I.	IC50 [3]: 744 nM
1 h	479 ng·h/mL	159 ng/mL and 863 nM	0.906 h	COc1c(O)cc(C(=O)O)cc1O [4-O-Methylgallic acid]	105.4 ± 2.5 % of Control	–	86.8 ± 0.2 % of Control	–
–	–	–	–	O=C1O[C@H]([C@@H](O)CO)C(O)=C1O [(+)-Ascorbic acid, reference compound]	–	–	–	Antioxidant Activity (% of Control) ROS Scavenge ([3]; 114 μmol/L, reference agent): 14.5 ± 0.6 % of Control and 20.2 ± 0.6 % of Control
2 h	–	–	–	Oc1cc(O)c2c(c1)O[C@H](c1ccc(O)c(O)c1)[C@@H](O)C2 [(+)-Catechin]	95.4 ± 3.9 % of Control	strong anti-ROS activity	7.3 ± 1.1 % of Control	AUC0–last ([2]; rat, in vivo, po, 2 g/kg): 65.1 ng·h/mL; IC50 [3]: 621 nM
–	–	–	–	O=C(O)/C=C/c1ccccc1 [(E)-Cinnamic acid]	104.3 ± 2.3 % of Control	–	108.7 ± 2.2 % of Control	–
6 h	17.1 ng·h/mL	14.4 ng/mL and 99 nM	–	O=C(O)CCCCC(=O)O [Adipic acid]	103.6 ± 2.9 % of Control	–	97.0 ± 0.9 % of Control	–
–	–	–	–	C[C@]12C[C@@H](O)[C@@H]3C[C@@]1(O[C@@H]1O[C@H](CO)[C@@H](O)[C@H](O)[C@H]1O)[C@@]3(COC(=O)c1ccccc1)C(=O)O2 [Albiflorin]	101.6 ± 2.2 % of Control	–	104.2 ± 1.1 % of Control	AUC0–last [2, 7]: 64.9 ng·h/mL; Tmax [2, 7]: 0.5 h; t1/2 [2, 7]: 1.6 h
–	–	–	–	N#C[C@H](O[C@@H]1O[C@H](CO[C@@H]2O[C@H](CO)[C@@H](O)[C@H](O)[C@H]2O)[C@@H](O)[C@H](O)[C@H]1O)c1ccccc1 [Amygdalin]	102.0 ± 2.1 % of Control	–	106.4 ± 0.5 % of Control	AUC(0-t) ([2]; in vivo, rat plasma, single oral KBGY 2 g/kg, read-out: AUC0–last): 79.9 ng·h/mL; Cmax ([2]; in vivo, rat plasma, single oral KBGY 2 g/kg, read-out: Cmax): 37.7 ng/mL and 82 nM; half-life ([2]; in vivo, rat plasma, single oral KBGY 2 g/kg, read-out: t1/2 (converted)): 0.657 h; Tmax [2, 8]: 0.5 h
0.25 h	39.9 ng·h/mL	54.7 ng/mL and 291 nM	–	O=C(O)CCCCCCCC(=O)O [Azelaic acid]	97.9 ± 4.4 % of Control	–	100.4 ± 0.7 % of Control	–
–	–	–	–	C=C(CC[C@@H](C(=O)O)[C@H]1[C@H](O)C[C@@]2(C)C3=CC[C@H]4C(C)(C)[C@@H](O)CC[C@]4(C)C3=CC[C@]12C)C(C)C [Dehydrotumulosic acid]	97.4 ± 3.1 % of Control	–	106.0 ± 0.4 % of Control	AUC(0-t) ([2]; rat plasma, single oral KBGY 2 g/kg, read-out: AUC0–last): 39.5 ng·h/mL; Cmax ([2]; rat plasma, single oral KBGY 2 g/kg, read-out: Cmax): 15.5 ng/mL and 32 nM; half-life ([2]; rat plasma, single oral KBGY 2 g/kg, read-out: t1/2 (converted)): 3.81 h; Tmax ([2]; rat plasma, single oral KBGY 2 g/kg, read-out: tmax): 0.5 h
0.5 h	2.91 ng·h/mL	1.03 ng/mL and 3 nM	27.3 h	OC[C@H](Cc1cccc(O)c1)[C@H](CO)Cc1cccc(O)c1 [Enterodiol]	84.9 ± 3.1 % of Control	strong anti-ROS activity	C.I.	Antioxidant Activity (% of Control) LPO Generation ([1]; 1 μmol/L): 95.2 ± 4.4 % of Control; Antioxidant Activity (% of Control) ROS Scavenge [3, 5]: 67.6 ± 2.4 % of Control
4 h	1.33 ng·h/mL	1.07 ng/mL and 4 nM	–	O=C1OC[C@H](Cc2cccc(O)c2)[C@H]1Cc1cccc(O)c1 [Enterolactone]	86.1 ± 0.9 % of Control	strong anti-ROS activity	C.I.	Antioxidant Activity (% of Control) LPO Generation ([1]; 1 μmol/L): 102.1± 2.7 % of Control; Antioxidant Activity (% of Control) ROS Scavenge [3, 5]: 81.6 ± 2.9 % of Control
4 h	5.29 ng·h/mL	1.21 ng/mL and 2 nM	–	C=C(CC[C@@H](C(=O)O)[C@H]1[C@H](O)C[C@@]2(C)C3=C(CC[C@]12C)[C@@]1(C)CC[C@H](OC(C)=O)C(C)(C)[C@@H]1CC3)C(C)C [Pachymic acid]	–	–	–	–

Compound	Tmax ([2]; rat, in vivo, po, 2 g/kg)	AUC(0-t) ([2]; rat, in vivo, po, 2 g/kg)	Cmax ([2]; rat, in vivo, po, 2 g/kg)	half-life ([2]; rat, in vivo, po, 2 g/kg)	Antioxidant Activity (% of Control) LPO Generation [1, 4]	anti-ROS activity ([3]; 10 μmol/L)	Antioxidant Activity (% of Control) ROS Scavenge [3, 6]	other results
O=C/C=C/c1ccccc1 [Cinnamaldehyde]	1 h	51.6 ng·h/mL	11.5 ng/mL and 87 nM	5.21 h	109.8 ± 3.9 % of Control	–	103.8 ± 1.1 % of Control	–
O=C(O)c1cc(O)c(O)c(O)c1 [Gallic acid]	–	172 ng·h/mL	84.9 ng/mL and 499 nM	0.772 h	74.0 ± 2.5 % of Control	strong anti-ROS activity	14.5 ± 0.7 % of Control	Antioxidant Activity (% of Control) LPO Generation ([1]; 10 μmol/L, more than 100% = no activity, listed as gallic acid): less than 80 % of Control; Inhibition of LPO generation ([1]; 3 and 10 μmol/L, Figure 4): significantly inhibited LPO generation; Tmax [2, 8]: 0.5 h; ROS scavenging activity (% control) ([3]; 0.313 μmol/L): 71.1 % control; IC50 [3]: 954 nM
